Data from BindingDB's records for doi:10.1016/j.bmcl.2020.127004 (Merck, 2020).
pEC50: −log10 of the molar value.

Columns and labels:
[1] = Non-nucleoside inhibition of NS5B polymerase C316Y mutant in HCV genotype 1a by Taqman probe based RT-PCR analysis
[2] = Non-nucleoside inhibition of NS5B polymerase in HCV genotype 1b by Taqman probe based RT-PCR analysis
[3] = Non-nucleoside inhibition of NS5B polymerase in HCV genotype 2b by Taqman probe based RT-PCR analysis
[4] = Non-nucleoside inhibition of NS5B polymerase in HCV genotype 4a by Taqman probe based RT-PCR analysis
[5] = Non-nucleoside inhibition of NS5B polymerase in HCV genotype 1a by Taqman probe based RT-PCR analysis
[6] = Non-nucleoside inhibition of NS5B polymerase in HCV genotype 3a by Taqman probe based RT-PCR analysis
[7] = Non-nucleoside inhibition of NS5B polymerase in HCV genotype 2a by Taqman probe based RT-PCR analysis
[8] = Non-nucleoside inhibition of NS5B polymerase S365A mutant in HCV genotype 1a by Taqman probe based RT-PCR analysis

SMILES | pEC50 [1] | pEC50 [2] | pEC50 [3] | pEC50 [4] | pEC50 [5] | pEC50 [6] | pEC50 [7] | pEC50 [8]
CNC(=O)c1c(-c2ccc(F)cc2)oc2cc(N(C)S(C)(=O)=O)c(-c3ccc4nnn(Cc5ccc(F)cc5)c(=O)c4c3)cc12 [US9364482, 44] | 7.92 | 8.41 | 8.40 | 8.85 | 8.77 | 9.10 | 7.89 | 7.12
CNC(=O)c1c(-c2ccc(F)cc2)oc2cc(N(C)S(C)(=O)=O)c(-c3cc(C)c4nnn(Cc5ccc(F)cc5)c(=O)c4c3)cc12 [US9364482, 74] | 7.54 | 8.48 | 8.17 | 9.10 | 8.74 | 8.85 | 8.21 | 6.92
CNC(=O)c1c(-c2ccc(F)cc2)oc2cc(N(C)S(C)(=O)=O)c(-c3cc(OC)c4nnn(Cc5ccc(F)cc5)c(=O)c4c3)cc12 [US9364482, 71] | 8.34 | 8.80 | 8.51 | 9.40 | 9.10 | 9.15 | 8.41 | 7.92
CNC(=O)c1c(-c2ccc(F)cc2)oc2cc(N(C)S(C)(=O)=O)c(-c3cc4c(=O)n(Cc5ccc(F)cc5)nnc4cc3Cl)cc12 [US9364482, 73] | 7.92 | 8.26 | 8.06 | 9.00 | 8.52 | 8.82 | 7.82 | 7.38
CNC(=O)c1c(-c2ccc(F)cc2)oc2cc(N(C)S(C)(=O)=O)c(-c3cc4c(=O)n(Cc5ccc(F)cc5)nnc4cc3F)cc12 [US9364482, 70] | 8.25 | 8.57 | 8.54 | 8.92 | 9.15 | 8.92 | 8.21 | 7.33
CNC(=O)c1c(-c2ccc(F)cc2)oc2cc(N(C)S(C)(=O)=O)c(-c3ccc4nc(C)n(Cc5ccc(F)cc5OC)c(=O)c4c3)cc12 | 7.36 | 8.82 | 8.30 | 8.66 | 9.00 | 8.96 | 7.89 | 6.75
CNC(=O)c1c(-c2ccc(F)cc2)oc2cc(N(C)S(C)(=O)=O)c(-c3ccc4nnn(C(C)c5ccc(F)cc5)c(=O)c4c3)cc12 (configuration not stated) | 7.82 | 8.54 | 8.24 | 8.96 | 8.55 | 9.10 | 8.03 | 6.56
CNC(=O)c1c(-c2ccc(F)cc2)oc2cc(N(C)S(C)(=O)=O)c(-c3ccc4nnn(C(CO)c5ccc(F)cc5)c(=O)c4c3)cc12 (configuration not stated) | 6.28 | 8.25 | 8.22 | 8.35 | 8.14 | 9.05 | 7.70 | 5.95
CNC(=O)c1c(-c2ccc(F)cc2)oc2cc(N(C)S(C)(=O)=O)c(-c3ccc4c(n3)C(=O)N(c3ccc(F)cc3)CO4)cc12 [US9364482, 2] | 6.34 | 8.42 | 7.72 | 8.08 | 7.72 | 8.82 | 6.82 | 5.87
CNC(=O)c1c(-c2ccc(F)cc2)oc2cc(N(C)S(C)(=O)=O)c(-c3ccc4nc(C)n(Cc5ccc(F)cn5)c(=O)c4c3)cc12 | 7.44 | 8.59 | 8.38 | 8.80 | 8.89 | 8.77 | 7.96 | 6.64
CNC(=O)c1c(-c2ccc(F)cc2)oc2cc(N(C)S(C)(=O)=O)c(-c3ccc4nc(COC)n(Cc5ccc(F)cc5)c(=O)c4c3)cc12 [US9364482, 53] | 8.39 | 8.62 | 8.43 | 9.05 | 8.68 | 9.10 | 8.09 | 7.72
CNC(=O)c1c(-c2ccc(F)cc2)oc2cc(N(C)S(C)(=O)=O)c(-c3ccc4nc(C)n(Cc5ccc(F)cc5F)c(=O)c4c3)cc12 | 8.27 | 9.10 | 8.27 | 9.15 | 9.30 | 9.05 | 8.08 | 7.96
CNC(=O)c1c(-c2ccc(F)cc2)oc2cc(N(C)S(C)(=O)=O)c(-c3ccc4nnn([C@@H](COC)c5ccc(F)cc5)c(=O)c4c3)cc12 [US9364482, 41] | 6.53 | 8.25 | 7.96 | 8.22 | 8.31 | 8.74 | 7.80 | 6.32
CNC(=O)c1c(-c2ccc(F)cc2)oc2cc(N(C)S(C)(=O)=O)c(-c3ccc4ncn(Cc5ccccc5)c(=O)c4c3)cc12 [US9364482, 49] | 7.15 | 8.46 | 8.03 | 8.46 | 8.49 | 8.92 | 7.74 | 6.72
CNC(=O)c1c(-c2ccc(F)cc2)oc2cc(N(C)S(C)(=O)=O)c(-c3ccc4nc(C)n([C@@H](COC)c5ccc(F)cc5)c(=O)c4c3)cc12 | 7.52 | 8.96 | 8.39 | 9.22 | 9.30 | 8.96 | 8.12 | 7.77
CNC(=O)c1c(-c2ccc(F)cc2)oc2cc(N(C)S(C)(=O)=O)c(-c3ccc4nc(CNC(C)=O)n(Cc5ccc(F)cc5)c(=O)c4c3)cc12 [US9364482, 54] | 7.49 | 8.55 | 8.23 | 8.18 | 8.96 | 8.85 | 7.24 | 8.08
CNC(=O)c1c(-c2ccc(F)cc2)oc2cc(N(C)S(C)(=O)=O)c(-c3cc4c(=O)n(Cc5ccc(F)cc5)nnc4cc3C)cc12 [US9364482, 72] | 8.21 | 8.36 | 8.33 | 9.00 | 8.64 | 8.96 | 8.18 | 7.80
CNC(=O)c1c(-c2ccc(F)cc2)oc2cc(N(C)S(C)(=O)=O)c(-c3ccc4nnn([C@H](COC)c5ccc(F)cc5)c(=O)c4c3)cc12 [US9364482, 39] | 7.74 | 8.59 | 8.41 | 9.15 | 8.92 | 9.00 | 7.92 | 7.17
CNC(=O)c1c(-c2ccc(F)cc2)oc2cc(N(C)S(C)(=O)=O)c(-c3ccc4nc(C)n(Cc5ccc(F)cc5)c(=O)c4c3)cc12 [US9364482, 55] | 8.54 | 8.96 | 8.82 | 9.22 | 9.52 | 9.22 | 8.39 | 8.15
CNC(=O)c1c(-c2ccc(F)cc2)oc2cc(N(C)S(C)(=O)=O)c(-c3ccc4nc(C)n(Cc5ccc(F)cc5)c(=O)c4n3)cc12 [US9364482, 68] | 7.44 | 8.80 | 8.57 | 8.54 | 8.96 | 9.00 | 8.00 | 6.86
CNC(=O)c1c(-c2ccc(F)cc2)oc2cc(N(C)S(C)(=O)=O)c(-c3ccc4nnn(Cc5ccccc5)c(=O)c4c3)cc12 [US9364482, 42] | 7.17 | 8.46 | 8.21 | 8.52 | 8.64 | 9.00 | 8.06 | 6.47
CNC(=O)c1c(-c2ccc(F)cc2)oc2cc(N(C)S(C)(=O)=O)c(-c3ccc4nnn(Cc5ccc(F)cn5)c(=O)c4c3)cc12 [US9364482, 48] | 7.54 | 8.57 | 8.25 | 8.68 | 8.48 | 8.96 | 7.96 | 6.35
CNC(=O)c1c(-c2ccc(F)cc2)oc2cc(N(C)S(C)(=O)=O)c(-c3ccc4nc(C)n([C@H](COC)c5ccc(F)cc5)c(=O)c4c3)cc12 | 7.68 | 8.96 | 7.96 | 8.62 | 9.22 | 8.80 | 7.72 | 7.43
CNC(=O)c1c(-c2ccc(F)cc2)oc2cc(N(C)S(C)(=O)=O)c(-c3ccc4c(n3)C(=O)N(Cc3ccc(F)cc3)CO4)cc12 [US9364482, 6] | 8.46 | 8.89 | 7.72 | 9.52 | 8.80 | 8.74 | 8.34 | 9.15
